Source: patent US8138205B2, “Heteroarylalkoxy-substituted quinolone inhibitors of PDE4” (Kalypsys, Inc., priority 2006, dated 2012)

Columns and labels:
Stability Protocol = format: physicochemical; settings: pH 7.4 sodium phosphate buffer, preliminary shelf life (T90) estimated from stressed samples
Description: About 3 mg of a compound was dissolved in 3 mL of acetonitrile/water mixture (50/50). 100 μL of the stock solution was added to 20 mL each of 0.025 M pH 5.0 sodium acetate buffer (A5.0), 0.025 M pH 5.0 citrate buffer (C5.0) and 0.025 M pH 7.4 sodium phosphate buffer (P7.4). A two mL aliquot of each solution was kept in a glass vial equipped a cap lined with Teflon. Two vials containing the solution were stored at 4° C. or −20° C. as control. Other aliquots were stressed at RT, 45° C. or 75° C. for specified time check points, e.g. 1 day, 1 w, 2 w, 4 w, 8 w,12 w. The stressed samples in duplicate were assayed against the control using HPLC. The results were reported in % degradation. Preliminary shelf life (T90) was estimated assuming the rate of chemical degradation is double when the temperature is up 10° C.

Solubility Protocol = format: physicochemical; settings: aqueous buffer, thermodynamic from solid; pH 7.4, 0.1 M sodium phosphate buffer
Description: About 5 mg of a compound was mixed with 500 μL of pH 7.4, 0.1 M sodium phosphate buffer. The mixture was adjusted to the original pH of 7.4 and then mixed overnight or longer via rotary mixing. The sample was checked for pH and then filtered through a 0.45 μm filter. If the pH drifted away, the sample was adjusted to its original pH and mixed for at least 15 minutes before filtration. The filtrate was analyzed using HPLC.

Rabbits = test: Lacrimal Gland Inflammation-Induced Dry Eye in Rabbits (corneal staining, tear breakup time); format: in vivo; settings: topical ocular BID, rabbit ConA dry eye
Text: A more detailed description of the assay used herein may be found in Naglehout, T J et al. 2005, “Preservation of Tear Film Integrity and Inhibition of Corneal Injury by Dexamethasone in a Rabbit Model of Lacrimal Gland Inflammation-Induced Dry Eye,” J. Ocular Pharm. Ther., 21:2. 139-148, the disclosure of which is hereby incorporated by reference as if written herein in its entirety.
Rabbits (n=4/group) were randomized into treatment groups and dosed topically BID with maxidex vehicle or test drug beginning one day prior to initiation of dry eye. Each rabbit received bilateral lacrimal gland injections of saline or ConA (300 μg/30 μl) and topical ocular dosing was continued BID throughout the study.
Desiccation was initiated 1-2 hours following lacrimal gland injection by placing conscious rabbits in the environmental chamber (10-15% humidity/72° F.). Following 72 consecutive hours of exposure to this dry environment, the animals were anesthetized and sutures were placed in each upper and lower eyelid and lifted to form a corneal/conjunctival cup. Methylene blue dye (1 mL, 1% in dH2O) was added to the cup for three minutes and the excess removed by washing with 200 mL BSS®. The contralateral eye was then stained using the same procedure. Rabbits were euthanized immediately following the staining procedure and the eyes were excised. The corneas were isolated with a trephine and the 9.5-mm punch of the cornea was placed in 2 mL acetone/saturated sodium sulfate (7:3, vol./vol.). Absorbance of the extracted dye was determined at 660 nm.
TBUT was quantified in a separate group of treated animals. TBUT was determined by instilling 5 μL sodium fluorescein into the cul de sac and manually blinking the lids to distribute the fluorescein within the tear film. Under slit lamp observation, the eye was held open and the time whereby one or more black spots or streaks appeared in the precorneal tear film was recorded. The rabbits were euthanized 3 days following ConA injection.

Stability, pH 7.4 (Stability Protocol) | solubility (Solubility Protocol) | Compound | Activity at Percent Concentration Tested (Rabbits; 1 × 10^−2 percent) | Activity at Percent Concentration Tested (Rabbits; 1 × 10^−4 percent) | Activity at Percent Concentration Tested (Rabbits; 1 × 10^−6 percent) | Activity at Percent Concentration Tested (Rabbits; 1 percent) | Activity at Percent Concentration Tested (Rabbits; 1 × 10^−1 percent)
+ (+ indicates ≧1 Year) | ≥ 1000 µg/mL | COc1ccc2c(Nc3c(C)cncc3C)cc(=O)[nH]c2c1OC1CCCC1 [Example 5, 8-(Cyclopentyloxy)-4-(3,5-dimethylpyridin-4-ylamino)-7-methoxyquinolin-2(1H)-one] | Inactive | Inactive | Inactive |  | 
+ (+ indicates ≧1 Year) | ≥ 1000 µg/mL | COc1ccc2c(Nc3c(Cl)cncc3Cl)cc(=O)[nH]c2c1OC1CCCC1 [Example 1, 8-(Cyclopentyloxy)-4-(3,5-dichloropyridin-4-ylamino)-7-methoxyquinolin-2(1H)-one] | Inactive |  |  | Inactive | Inactive
+ (+ indicates ≧1 Year) |  | COc1ccc2c(Nc3c(C)cncc3C)cc(=O)[nH]c2c1OCC1CC1 [Example 8, 8-(Cyclopropylmethoxy)-4-(3,5-dimethylpyridin-4-ylamino)-7-methoxyquinolin-2(1H)-one] | Inactive | Inactive | Inactive |  | 
